Among the targets are CSNK2A2 (Homo sapiens, UniProt P19784); TNIK (Homo sapiens, UniProt Q9UKE5); ROCK2 (Homo sapiens, UniProt O75116); PHKG1 (Homo sapiens, UniProt Q16816); CAMK1G (Homo sapiens, UniProt Q96NX5); STK36 (Homo sapiens, UniProt Q9NRP7); PIK3CG (Homo sapiens, UniProt P48736); PDGFRA (Homo sapiens, UniProt P16234); CAMK4 (Homo sapiens, UniProt Q16566); KIT(V559D,V654A) (Homo sapiens, UniProt P10721, V559D/V654A); DAPK2 (Homo sapiens, UniProt Q9UIK4).

Common to all, as to assay: biochemical
What all share (set-up): KINOMEscan active-site competition binding, percent of control (100 = no competition)
Common to all, as to details: competition binding, percent control

Another experiment deals with T1, PCTK1 (Homo sapiens, UniProt Q00536).
T1 construct: gene CDK16

The target of the next experiment is T2, MLK1 (Homo sapiens, UniProt P80192).
T2 construct: gene MAP3K9

Another experiment has as its target T3, PRP4 (Homo sapiens, UniProt Q13523).
T3 construct: gene PRPF4B

A further experiment deals with T4, BRK (Homo sapiens, UniProt Q13882).
T4 construct: gene PTK6
T4 sequence (Q13882 whole entry): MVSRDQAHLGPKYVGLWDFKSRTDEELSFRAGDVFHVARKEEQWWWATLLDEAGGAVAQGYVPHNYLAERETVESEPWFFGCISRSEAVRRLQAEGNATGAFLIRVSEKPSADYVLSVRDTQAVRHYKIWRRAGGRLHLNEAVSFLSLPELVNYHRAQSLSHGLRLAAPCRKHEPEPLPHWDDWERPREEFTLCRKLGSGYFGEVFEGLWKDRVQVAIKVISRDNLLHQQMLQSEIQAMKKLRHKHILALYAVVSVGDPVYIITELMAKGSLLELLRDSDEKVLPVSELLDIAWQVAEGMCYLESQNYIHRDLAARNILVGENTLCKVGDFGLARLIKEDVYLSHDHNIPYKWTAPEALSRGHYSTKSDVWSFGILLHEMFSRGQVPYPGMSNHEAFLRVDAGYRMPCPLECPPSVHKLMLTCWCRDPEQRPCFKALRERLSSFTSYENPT

For a further experiment, the target named is T5, PFTK1 (Homo sapiens, UniProt O94921).
T5 construct: gene CDK14
T5 sequence (O94921 whole entry): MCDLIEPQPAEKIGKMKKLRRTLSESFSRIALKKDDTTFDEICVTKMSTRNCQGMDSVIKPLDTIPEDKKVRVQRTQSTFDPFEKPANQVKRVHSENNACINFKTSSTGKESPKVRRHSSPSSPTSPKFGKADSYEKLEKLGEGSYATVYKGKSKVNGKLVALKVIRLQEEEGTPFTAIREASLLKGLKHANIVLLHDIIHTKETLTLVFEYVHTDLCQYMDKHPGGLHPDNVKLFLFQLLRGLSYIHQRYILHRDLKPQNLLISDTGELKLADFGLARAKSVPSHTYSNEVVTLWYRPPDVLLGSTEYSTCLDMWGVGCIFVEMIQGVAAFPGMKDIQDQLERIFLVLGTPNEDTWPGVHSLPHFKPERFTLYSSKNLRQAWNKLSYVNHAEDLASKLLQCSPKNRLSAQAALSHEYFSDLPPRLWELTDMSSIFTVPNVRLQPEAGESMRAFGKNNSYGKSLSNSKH

In experiment [1] the target is T6, TYK2(JH2domain-pseudokinase) (Homo sapiens, UniProt P29597).
T6 construct: JH2domain-pseudokinase

The target of experiment [2] is EGFR(L747-E749del, A750P) (Homo sapiens, UniProt P00533, A750P/DEL747-749).
The target in a further experiment is T7, YSK1 (Homo sapiens, UniProt O00506).
T7 construct: gene STK25

In the next experiment the target is T8, ADCK3 (Homo sapiens, UniProt Q8NI60).
T8 construct: gene COQ8A
T8 sequence (Q8NI60 whole entry): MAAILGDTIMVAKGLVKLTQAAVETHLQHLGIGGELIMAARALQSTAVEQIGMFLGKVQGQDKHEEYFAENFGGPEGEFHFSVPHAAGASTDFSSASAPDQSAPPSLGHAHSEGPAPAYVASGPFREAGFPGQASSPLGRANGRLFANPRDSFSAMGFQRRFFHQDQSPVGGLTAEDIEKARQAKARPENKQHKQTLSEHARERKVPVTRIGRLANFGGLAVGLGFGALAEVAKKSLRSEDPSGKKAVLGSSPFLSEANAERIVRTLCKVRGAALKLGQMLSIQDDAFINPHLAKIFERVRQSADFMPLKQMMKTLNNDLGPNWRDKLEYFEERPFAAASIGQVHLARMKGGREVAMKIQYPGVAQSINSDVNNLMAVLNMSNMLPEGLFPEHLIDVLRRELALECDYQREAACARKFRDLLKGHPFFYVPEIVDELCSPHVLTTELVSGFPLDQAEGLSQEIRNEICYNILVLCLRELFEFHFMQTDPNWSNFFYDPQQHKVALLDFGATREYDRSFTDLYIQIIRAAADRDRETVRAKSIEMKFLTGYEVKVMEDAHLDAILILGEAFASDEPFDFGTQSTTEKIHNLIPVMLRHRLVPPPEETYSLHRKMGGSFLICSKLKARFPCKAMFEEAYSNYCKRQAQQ

Experiment [3] has as its target T9, RSK3(Kin.Dom.2-C-terminal) (Homo sapiens, UniProt Q15349).
T9 construct: gene RPS6KA2; Kin.Dom.2-C-terminal

The target of the next experiment is T10, TIE2 (Homo sapiens, UniProt Q02763).
T10 construct: gene TEK
T10 sequence (Q02763 whole entry): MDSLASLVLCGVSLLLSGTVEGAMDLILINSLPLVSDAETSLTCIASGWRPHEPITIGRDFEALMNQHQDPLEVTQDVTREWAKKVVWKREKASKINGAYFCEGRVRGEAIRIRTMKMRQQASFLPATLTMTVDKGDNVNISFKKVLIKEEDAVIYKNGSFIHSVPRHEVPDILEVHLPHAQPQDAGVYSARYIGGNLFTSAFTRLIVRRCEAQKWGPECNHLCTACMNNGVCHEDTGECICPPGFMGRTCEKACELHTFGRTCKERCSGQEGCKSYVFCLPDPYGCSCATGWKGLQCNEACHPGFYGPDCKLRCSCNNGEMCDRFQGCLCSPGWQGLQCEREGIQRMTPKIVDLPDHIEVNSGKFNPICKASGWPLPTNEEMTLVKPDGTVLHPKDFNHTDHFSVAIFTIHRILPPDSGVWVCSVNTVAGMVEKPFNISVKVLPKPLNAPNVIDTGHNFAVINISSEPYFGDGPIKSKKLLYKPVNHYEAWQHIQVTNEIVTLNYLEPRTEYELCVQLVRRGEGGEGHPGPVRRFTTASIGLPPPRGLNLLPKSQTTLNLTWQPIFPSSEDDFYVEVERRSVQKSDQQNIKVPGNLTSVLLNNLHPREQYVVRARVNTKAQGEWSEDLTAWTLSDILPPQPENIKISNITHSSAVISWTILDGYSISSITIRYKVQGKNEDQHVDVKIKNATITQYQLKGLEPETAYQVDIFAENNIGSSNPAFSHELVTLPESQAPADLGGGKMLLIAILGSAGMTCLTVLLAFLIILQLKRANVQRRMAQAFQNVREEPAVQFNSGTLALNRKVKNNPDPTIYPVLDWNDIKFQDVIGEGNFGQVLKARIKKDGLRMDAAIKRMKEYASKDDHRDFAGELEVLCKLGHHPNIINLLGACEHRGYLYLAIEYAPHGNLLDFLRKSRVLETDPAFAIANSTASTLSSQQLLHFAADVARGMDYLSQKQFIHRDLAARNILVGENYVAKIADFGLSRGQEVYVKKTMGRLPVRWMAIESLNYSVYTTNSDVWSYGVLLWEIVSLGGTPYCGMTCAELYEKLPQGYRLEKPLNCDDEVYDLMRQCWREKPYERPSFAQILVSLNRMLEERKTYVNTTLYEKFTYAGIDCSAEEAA

Chain of CAMK1G (Q96NX5 whole entry): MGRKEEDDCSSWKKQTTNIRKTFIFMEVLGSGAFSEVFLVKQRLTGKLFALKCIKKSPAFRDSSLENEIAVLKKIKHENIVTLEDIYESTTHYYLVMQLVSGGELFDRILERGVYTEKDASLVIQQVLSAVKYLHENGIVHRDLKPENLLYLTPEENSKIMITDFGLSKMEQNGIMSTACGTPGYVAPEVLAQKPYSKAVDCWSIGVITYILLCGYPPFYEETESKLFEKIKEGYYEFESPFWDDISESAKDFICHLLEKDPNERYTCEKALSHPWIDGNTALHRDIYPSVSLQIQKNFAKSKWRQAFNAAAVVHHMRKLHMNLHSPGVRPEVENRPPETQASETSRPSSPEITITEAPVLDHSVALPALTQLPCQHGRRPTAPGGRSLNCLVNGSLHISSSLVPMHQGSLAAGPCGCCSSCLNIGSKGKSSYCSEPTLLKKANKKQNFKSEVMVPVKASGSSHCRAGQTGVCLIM
Chain of DAPK2 (Q9UIK4 whole entry): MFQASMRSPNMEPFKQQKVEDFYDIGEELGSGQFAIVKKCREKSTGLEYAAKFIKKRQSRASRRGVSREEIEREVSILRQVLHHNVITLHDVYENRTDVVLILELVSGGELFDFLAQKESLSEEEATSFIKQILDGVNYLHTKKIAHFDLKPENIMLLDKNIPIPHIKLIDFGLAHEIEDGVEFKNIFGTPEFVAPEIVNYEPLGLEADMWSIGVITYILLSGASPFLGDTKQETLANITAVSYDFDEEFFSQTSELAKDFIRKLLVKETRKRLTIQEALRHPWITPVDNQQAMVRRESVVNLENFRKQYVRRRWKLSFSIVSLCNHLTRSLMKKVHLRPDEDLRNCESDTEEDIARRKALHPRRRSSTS
Chain of PHKG1 (Q16816 whole entry): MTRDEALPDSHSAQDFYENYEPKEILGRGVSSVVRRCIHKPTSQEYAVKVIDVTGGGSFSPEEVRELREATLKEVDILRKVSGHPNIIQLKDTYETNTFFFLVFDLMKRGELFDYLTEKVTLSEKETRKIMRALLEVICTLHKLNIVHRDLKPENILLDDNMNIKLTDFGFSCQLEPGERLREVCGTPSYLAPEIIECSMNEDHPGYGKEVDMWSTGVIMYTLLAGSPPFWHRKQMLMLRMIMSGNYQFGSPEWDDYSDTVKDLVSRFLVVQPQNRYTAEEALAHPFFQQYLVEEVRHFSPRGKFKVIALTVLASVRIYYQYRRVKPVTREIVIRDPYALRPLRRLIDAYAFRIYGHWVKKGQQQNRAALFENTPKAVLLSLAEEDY
Chain of CSNK2A2 (P19784 whole entry): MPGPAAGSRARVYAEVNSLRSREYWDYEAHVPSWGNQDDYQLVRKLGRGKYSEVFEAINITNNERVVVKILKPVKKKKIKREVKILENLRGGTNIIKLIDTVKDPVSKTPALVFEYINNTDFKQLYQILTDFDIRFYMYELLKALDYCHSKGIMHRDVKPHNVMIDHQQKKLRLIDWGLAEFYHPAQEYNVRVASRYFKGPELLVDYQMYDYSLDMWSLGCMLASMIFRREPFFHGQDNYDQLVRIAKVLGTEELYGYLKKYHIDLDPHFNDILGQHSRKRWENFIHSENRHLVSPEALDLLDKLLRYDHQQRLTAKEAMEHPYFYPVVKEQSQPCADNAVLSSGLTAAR
Chain of CAMK4 (Q16566 whole entry): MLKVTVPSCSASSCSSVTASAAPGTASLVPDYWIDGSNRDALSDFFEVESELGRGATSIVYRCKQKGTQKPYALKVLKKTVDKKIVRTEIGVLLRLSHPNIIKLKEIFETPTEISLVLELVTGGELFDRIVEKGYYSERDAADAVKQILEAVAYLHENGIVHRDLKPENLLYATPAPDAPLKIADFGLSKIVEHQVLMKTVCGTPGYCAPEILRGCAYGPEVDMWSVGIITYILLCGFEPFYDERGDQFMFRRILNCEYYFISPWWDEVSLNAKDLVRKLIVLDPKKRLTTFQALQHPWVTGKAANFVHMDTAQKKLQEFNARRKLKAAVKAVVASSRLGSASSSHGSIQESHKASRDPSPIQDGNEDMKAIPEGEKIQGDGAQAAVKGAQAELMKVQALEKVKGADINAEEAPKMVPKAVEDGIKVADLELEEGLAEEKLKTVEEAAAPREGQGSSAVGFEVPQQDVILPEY

Take `COc1ccc(-c2cnccc2-c2cnc(NC(=O)C(C)C)s2)c(C(F)(F)F)c1` [CRT0105446, N-{5-[3-(4-Methoxy-2-trifluoromethyl-phenyl)-pyridin-4-yl]-hiazol-2-yl}-isobutyramide]: the remaining binding at 10 µM on PCTK1 worked out at 11%; at MLK1 it was 86%; at PRP4, 100%; on BRK, 100%; at CSNK2A2 it was 91%; on TNIK it was 89%. In addition, the remaining binding at 10 µM on ROCK2 is 95%; on PFTK1, 51%; in [1] it was 100%; in [2], 98%; on PHKG1 it was 78%; on YSK1, 100%. Besides, the remaining binding at 10 µM at ADCK3 came to 98%; at CAMK1G, 99%; at STK36, 57%; at PIK3CG it was 96%; in [3], 93%; on PDGFRA, 66%. Also, the remaining binding at 10 µM on TIE2 is 87%; on CAMK4, 98%; at KIT(V559D,V654A) it was 100%; at DAPK2, 87%.

On to `Cc1ccc(-c2cnccc2-c2cnc(Nc3ccc(O)cc3)s2)c(Cl)c1` [CRT0105950, 4-{5-[3-(2-Chloro-4-methyl-phenyl)-pyridin-4-yl]-thiazol-2-ylamino}-phenol], for which the remaining binding at 10 µM came out at 63% on PCTK1; 13% on MLK1; 100% on PRP4; 100% at BRK; 58% on CSNK2A2; 10% at TNIK. Besides, the remaining binding at 10 µM at ROCK2 was determined as 77%; on PFTK1 it was 47%; in experiment [1], 81%; in experiment [2] it was 64%; at PHKG1 it was 56%; on YSK1 it was 22%. Besides, the remaining binding at 10 µM at ADCK3 stood at 56%; on CAMK1G, 57%; at STK36, 17%; at PIK3CG, 82%; in experiment [3], 88%; at PDGFRA, 48%. For the same compound, the remaining binding at 10 µM stood at 44% at TIE2, 90% on CAMK4, 11% on KIT(V559D,V654A) and 53% on DAPK2.

Source of the values: PMC4770715, “LIM kinase inhibitors disrupt mitotic microtubule organization and impair tumor cell proliferation” (Oncotarget, 2015).
